Where “and” joins values, the source holds several entries; their conditions need not be identical. Equal values may be shown once.
Assays:
[1] = specific heat capacity at constant pressure; xn = mol fraction of the nth substance listed; conditions: 100 kPa, Crystal of intercomponent compound 1, x2 = 0.451
[2] = xn = mol fraction of the nth substance listed; conditions: 298 K; 100 kPa; Crystal of intercomponent compound 1; X-ray diffraction; x2 = 0.451

[S] [sulfur] + [In]
[1]
Conditions | specific heat capacity
14.16 K, relaxation calorimetry | 10.46 J/K/kg
14.18 K, relaxation calorimetry | 10.51 J/K/kg
16.17 K, relaxation calorimetry | 15.52 J/K/kg
16.18 K, relaxation calorimetry | 15.54 J/K/kg
16.19 K, relaxation calorimetry | 15.59 J/K/kg
18.2 K, relaxation calorimetry | 21.32 J/K/kg and 21.36 J/K/kg
20.21 K, relaxation calorimetry | 27.47 J/K/kg and 27.51 J/K/kg
20.22 K, relaxation calorimetry | 27.57 J/K/kg
22.23 K, relaxation calorimetry | 33.81 J/K/kg and 33.8 J/K/kg
22.24 K, relaxation calorimetry | 33.85 J/K/kg
24.25 K, relaxation calorimetry | 40.26 J/K/kg and 40.2 J/K/kg
24.26 K, relaxation calorimetry | 40.28 J/K/kg
26.26 K, relaxation calorimetry | 46.66 J/K/kg and 46.68 J/K/kg
26.27 K, relaxation calorimetry | 46.58 J/K/kg
28.28 K, relaxation calorimetry | 52.75 J/K/kg and 52.77 J/K/kg and 52.81 J/K/kg
30.3 K, relaxation calorimetry | 58.62 J/K/kg and 58.63 J/K/kg
30.31 K, relaxation calorimetry | 58.71 J/K/kg
35.34 K, relaxation calorimetry | 72.92 J/K/kg
35.36 K, relaxation calorimetry | 72.92 J/K/kg
40.38 K, relaxation calorimetry | 85.85 J/K/kg
45.42 K, relaxation calorimetry | 97.7 J/K/kg
45.43 K, relaxation calorimetry | 97.63 J/K/kg
45.44 K, relaxation calorimetry | 97.63 J/K/kg
50.46 K, relaxation calorimetry | 109.27 J/K/kg and 109.41 J/K/kg
50.48 K, relaxation calorimetry | 109.27 J/K/kg
55.5 K, relaxation calorimetry | 120.03 J/K/kg and 120.1 J/K/kg
55.51 K, relaxation calorimetry | 120.17 J/K/kg
60.54 K, relaxation calorimetry | 130.38 J/K/kg and 130.24 J/K/kg
65.58 K, relaxation calorimetry | 140.8 J/K/kg and 140.86 J/K/kg
65.59 K, relaxation calorimetry | 140.8 J/K/kg
70.62 K, relaxation calorimetry | 151.01 J/K/kg and 151.08 J/K/kg
70.64 K, relaxation calorimetry | 150.94 J/K/kg
75.66 K, relaxation calorimetry | 160.88 J/K/kg and 160.47 J/K/kg and 160.68 J/K/kg
80.69 K, relaxation calorimetry | 170.82 J/K/kg and 170.68 J/K/kg and 170.62 J/K/kg
85.73 K, relaxation calorimetry | 180.22 J/K/kg and 180.15 J/K/kg and 179.74 J/K/kg
90.75 K, relaxation calorimetry | 189.47 J/K/kg
90.77 K, relaxation calorimetry | 189.13 J/K/kg and 188.59 J/K/kg
95.78 K, relaxation calorimetry | 197.58 J/K/kg
95.79 K, relaxation calorimetry | 197.17 J/K/kg and 197.1 J/K/kg
100.82 K, relaxation calorimetry | 204.93 J/K/kg
100.83 K, relaxation calorimetry | 204.59 J/K/kg
100.92 K, relaxation calorimetry | 204.18 J/K/kg
105.86 K, relaxation calorimetry | 212.83 J/K/kg
105.87 K, relaxation calorimetry | 213.24 J/K/kg and 212.76 J/K/kg
113.82 K, relaxation calorimetry | 223.18 J/K/kg and 223.24 J/K/kg and 222.9 J/K/kg
121.72 K, relaxation calorimetry | 233.18 J/K/kg
121.75 K, relaxation calorimetry | 233.18 J/K/kg
121.76 K, relaxation calorimetry | 233.12 J/K/kg
129.68 K, relaxation calorimetry | 241.97 J/K/kg
129.69 K, relaxation calorimetry | 242.31 J/K/kg and 241.97 J/K/kg
137.6 K, relaxation calorimetry | 249.86 J/K/kg
137.62 K, relaxation calorimetry | 250 J/K/kg
145.51 K, relaxation calorimetry | 257.22 J/K/kg
145.55 K, relaxation calorimetry | 257.15 J/K/kg and 256.88 J/K/kg
153.44 K, relaxation calorimetry | 264.09 J/K/kg
153.45 K, relaxation calorimetry | 264.23 J/K/kg
153.46 K, relaxation calorimetry | 264.03 J/K/kg
161.36 K, relaxation calorimetry | 269.88 J/K/kg
161.38 K, relaxation calorimetry | 270.02 J/K/kg
161.39 K, relaxation calorimetry | 270.08 J/K/kg
169.28 K, relaxation calorimetry | 275.6 J/K/kg
169.31 K, relaxation calorimetry | 275.74 J/K/kg
169.32 K, relaxation calorimetry | 275.46 J/K/kg
177.2 K, relaxation calorimetry | 280.36 J/K/kg
177.24 K, relaxation calorimetry | 280.23 J/K/kg and 280.3 J/K/kg
185.14 K, relaxation calorimetry | 284.52 J/K/kg
185.17 K, relaxation calorimetry | 284.79 J/K/kg and 284.86 J/K/kg
193.05 K, relaxation calorimetry | 288.4 J/K/kg
193.08 K, relaxation calorimetry | 288.74 J/K/kg
193.09 K, relaxation calorimetry | 289.08 J/K/kg
200.97 K, relaxation calorimetry | 292.69 J/K/kg
201 K, relaxation calorimetry | 292.89 J/K/kg
201.01 K, relaxation calorimetry | 293.03 J/K/kg
208.88 K, relaxation calorimetry | 296.02 J/K/kg
208.92 K, relaxation calorimetry | 295.96 J/K/kg and 296.16 J/K/kg
216.78 K, relaxation calorimetry | 299.56 J/K/kg
216.82 K, relaxation calorimetry | 299.7 J/K/kg
216.83 K, relaxation calorimetry | 299.7 J/K/kg
224.7 K, relaxation calorimetry | 302.56 J/K/kg
224.74 K, relaxation calorimetry | 303.1 J/K/kg
224.75 K, relaxation calorimetry | 302.7 J/K/kg
232.6 K, relaxation calorimetry | 305.01 J/K/kg
232.66 K, relaxation calorimetry | 305.01 J/K/kg and 305.22 J/K/kg
240.51 K, relaxation calorimetry | 306.71 J/K/kg
240.54 K, relaxation calorimetry | 307.67 J/K/kg and 307.53 J/K/kg
248.4 K, relaxation calorimetry | 309.84 J/K/kg
248.45 K, relaxation calorimetry | 310.12 J/K/kg
248.48 K, relaxation calorimetry | 308.89 J/K/kg
256.34 K, relaxation calorimetry | 310.59 J/K/kg
256.4 K, relaxation calorimetry | 310.73 J/K/kg and 310.66 J/K/kg
262.24 K, Extra sensitive DSC | 315.9 J/K/kg
264.24 K, relaxation calorimetry | 312.43 J/K/kg
264.3 K, relaxation calorimetry | 312.98 J/K/kg
264.31 K, relaxation calorimetry | 312.98 J/K/kg
265 K, Extra sensitive DSC | 316.72 J/K/kg
270 K, Extra sensitive DSC | 317.74 J/K/kg
275 K, Extra sensitive DSC | 319.31 J/K/kg
280 K, Extra sensitive DSC | 320.94 J/K/kg
285 K, Extra sensitive DSC | 322.44 J/K/kg
290 K, Extra sensitive DSC | 323.94 J/K/kg
295 K, Extra sensitive DSC | 325.44 J/K/kg
300 K, Extra sensitive DSC | 326.59 J/K/kg
305 K, Extra sensitive DSC | 328.02 J/K/kg
310 K, Extra sensitive DSC | 329.18 J/K/kg
315 K, Extra sensitive DSC | 329.93 J/K/kg
320 K, Extra sensitive DSC | 330.54 J/K/kg
325 K, Extra sensitive DSC | 331.29 J/K/kg
330 K, Extra sensitive DSC | 332.31 J/K/kg
335 K, Extra sensitive DSC | 333.13 J/K/kg
337.86 K, Extra sensitive DSC | 333.4 J/K/kg
340.38 K, Extra sensitive DSC | 332.92 J/K/kg
343.85 K, Extra sensitive DSC | 333.47 J/K/kg
345.58 K, Extra sensitive DSC | 333.74 J/K/kg
348.19 K, Extra sensitive DSC | 335.31 J/K/kg
350.79 K, Extra sensitive DSC | 335.51 J/K/kg
353.39 K, Extra sensitive DSC | 335.99 J/K/kg
355.13 K, Extra sensitive DSC | 336.53 J/K/kg
356 K, Extra sensitive DSC | 335.78 J/K/kg
358.6 K, Extra sensitive DSC | 336.4 J/K/kg

Conditions | mass density [kg/m3]
[2] | 5211

Reference: the NIST ThermoML archive (doi:10.1016/j.jct.2018.08.013)
